Experimental data reported in patent publication US10561665B2, “Treatment of autism” (priority 2014, dated 2020).
Read-outs that look alike come from different tables or passages of the source.

Experiments:
α7 nicotinic receptors = target: T1, α7 nicotinic receptors (Rattus norvegicus, UniProt Q05941); conditions: cited from earlier work
T1 construct: Primary cultured rat neurons can be depolarized by the application of 1.5 mM choline; endogenous in cells; host or cells: primary cultured rat neurons
T1 sequence (Q05941 23-502): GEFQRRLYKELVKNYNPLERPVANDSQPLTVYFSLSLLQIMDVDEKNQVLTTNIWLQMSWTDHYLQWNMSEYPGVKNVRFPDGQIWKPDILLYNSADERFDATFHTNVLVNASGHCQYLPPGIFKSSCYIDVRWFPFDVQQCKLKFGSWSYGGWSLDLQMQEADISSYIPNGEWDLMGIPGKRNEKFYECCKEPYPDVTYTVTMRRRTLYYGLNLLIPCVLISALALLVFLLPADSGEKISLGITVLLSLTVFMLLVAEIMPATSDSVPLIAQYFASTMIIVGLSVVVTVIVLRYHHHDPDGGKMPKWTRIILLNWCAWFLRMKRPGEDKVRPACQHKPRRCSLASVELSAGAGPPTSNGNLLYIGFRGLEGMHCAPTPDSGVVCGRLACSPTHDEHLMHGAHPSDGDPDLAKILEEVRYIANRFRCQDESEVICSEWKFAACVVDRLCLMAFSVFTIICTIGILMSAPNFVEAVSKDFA

[1] = human patients; cited from earlier work
[2] = test system: mice with lesions of the nucleus basalis magnocellularis; conditions: cited from earlier work; for increase of time remaining in the lighted compartment versus saline: nBM lesioned mice, compound given during training, optimal performance; for best dose for memory enhancement: passive avoidance, 24 hour retention
ASD patients = conditions: case reports, open-label and poorly documented studies; cited from earlier work
[3] = test system: patient with 15q13.3 deletion syndrome; conditions: one patient; cited from earlier work
[4] = test system: mild cognitive impairment population; conditions: patients with mild cognitive impairment; cited from earlier work
cholinesterase [5] = assay: cholinesterase inhibition (IC50); format: biochemical
CaCo-2 cells = assay: in vitro permeability of a layer of CaCo-2 cells; format: in vitro ADME, human; conditions: predicted from CaCo-2 permeability
[6] = liver microsome stability; format: in vitro ADME, Mouse; conditions: for half-life at 5 μM: mouse, liver microsomes
Mecp2 mice [7] = assay: locomotor activity (photobeam) in Mecp2 mutant mice and controls; format: in vivo; conditions: 0.1 to 20 mg/kg
Procedure: Locomotor activity was monitored using methods described previously (Shaevitz et al. 2013 Genes Brain Behav, 12(7): 732-40. doi: 10.1111/gbb.12070). Mecp2 mutant males (between 1 and 3 months old) and females (between 3 and 6 months old) and age-matched controls were monitored for one-hour prior to and 12 hours after drug (or vehicle: 20% DMSO in saline) administration (one set of mice received IP injections and one set of mice received oral gavage) in doses that ranged from 0.1-20 mg/kg). Activity was measured across the 12-h dark cycle using a photobeam activity system (San Diego instruments, San Diego, Calif., USA). Mice were placed individually into a cage (47×25×21 cm) inside a rectangular arena equipped with a 3×8 array of photobeams. The average number of ambulatory (two adjacent) and fine (repeated single) beam breaks per hour over the 12 h was compared. [N=2 mice/group at each dose and each administration route; for the vehicle controls, N=6 WT/group; N=6 Mecp2/group]. Data were analyzed using repeated measures analysis of variance.

Mecp2 mice [8] = assay: respiratory function (plethysmograph) in Mecp2 mutant mice and controls; format: in vivo; conditions: IP or gavage, 0.1 to 20 mg/kg
Procedure: Respiratory function was monitored in a plethysmograph (EMKA Technologies) for 30 minutes prior to and 1 hour after drug administration (one set of mice received IP injections and one set of mice received oral gavage). [N=2 mice/group at each dose and each administration route; for the vehicle controls, N=6 WT/group; N=6 Mecp2/group]. Data were analyzed using repeated measures analysis of variance.

female Mecp2 mice = assay: novel object recognition (NOR) task in female Mecp2 mice; format: in vivo; conditions: Mecp2 females
Procedure: Cognitive function was assessed using the novel object recognition (NOR) task using methods previously described (Schaevitz et al. 2013). […] Novel object memory was assessed during three sessions. This task relies on the innate tendency of a mouse to explore unfamiliar objects vs. familiar objects. Testing was performed in an open-field arena. Twenty-four hours prior to training, mice were habituated to the arena for 10 min. Ninety minutes before training, the mice were administered drug or vehicle (0.1, 0.5, 1.0, 2.5 and 5.0 mg/kg IP). During training, mice were given 10 min to explore two identical Lego objects (A+A). Short- and long-term object memory were assessed in two subsequent sessions ([…]) during which mice were given 10 min to explore the familiar (A) or a novel (B or C) object. The duration of exploration (defined as the mouse's snout or forelimbs physically touching or approaching within 1 cm of an object) of familiar and novel objects was measured. The amount of time spent exploring the novel object over the total time exploring both novel and familiar objects in each session was used to measure object memory. [N=6/dose of 0.1, 0.5 and 1.0; N=1/dose of 2.5 and 5.0 mg/kg; for vehicle N=6 WT and N=6 Mecp2 mice.]
For the novel objection recognition task data, we created a matrix of all wildtype and Mecp2 females who were administered the vehicle and a second matrix comparing Mecp2 females with and without the drug (all doses combined).

cholinesterase [9] = conditions: cholinesterase inhibitor (Han et al 1991); cited from earlier work
mice = conditions: cited from earlier work; for adverse effects at very high doses: 50-100 mg/kg
[10] = stability in mouse plasma
[11] = 5.0 μM, Mouse, read-out: NADPH-dependent T1/2 (half-life)
[12] = 5.0 μM, Mouse, read-out: NADPH-free T1/2 (half-life)
[13] = all doses combined (0.1-5.0 mg/kg IP)

COc1ccc2c3c1O[C@H]1C[C@@H](O)C=C[C@@]31CCN(C)C2 [Galantamine]
enhancement of the depolarization caused by choline (α7 nicotinic receptors; 1 μM compound, 1.5 mM choline, primary cultured rat neurons): 20.6±4.2%
plasma half-life [1]: about 7 hours
increase of time remaining in the lighted compartment versus saline [2]: about 125 seconds
best dose for memory enhancement [2]: 3 mg/kg
clinical outcome in ASD (ASD patients): some beneficial results
episodes of rage [3]: striking decrease in episodes of rage
mortality in mild cognitive impairment [4]: increased mortality

CCCCNC(=O)O[C@H]1C=C[C@@]23CCN(C)Cc4ccc(OC)c(c42)O[C@H]3C1 [Galantamine n-butylcarbamate, n-butylcarbamate derivative of galantamine]
cholinesterase inhibitory potency relative to galantamine (cholinesterase [5]): about 36%
predicted oral bioavailability (CaCo-2 cells): 80%
NADPH-dependent CLint (microsomal intrinsic clearance) ([6]; 5.0 μM, Mouse): 23.5 μl min^−1 mg−^1
NADPH-free CLint (microsomal intrinsic clearance) ([6]; 5.0 μM, Mouse): 0.0 μl min^−1 mg−^1
half-life at 5 μM [6, 11]: 1.64 h
half-life at 5 μM [6, 12]: > 1 h
half-life at 5 μM ([6]; in-vitro preparation of liver microsomes, read-out: half-life in liver microsomes): > 1 h
tolerability (Mecp2 mice [7]; Mecp2 mice of both sexes and controls, locomotor and respiratory functions): safe and well tolerated
effect on locomotor activity (Mecp2 mice [7]; IP or gavage, Mecp2 mice of either sex): did not impair locomotor activity
effect on respiratory activity (Mecp2 mice [8]): did not affect respiratory activity
NOR task learning versus vehicle (female Mecp2 mice; Chi square p=0.0321): learned the NOR task significantly better than vehicle-injected Mecp2 mice
share of mice with NOR scores = or below 0.5 (female Mecp2 mice; [13]): 65%
share of mice with NOR scores above 0.5 (female Mecp2 mice; [13]): 35%
IC50 (cholinesterase [9]): 1090 nM
effect of FK-1 antibody on the enhancement (α7 nicotinic receptors; antibody to the galantamine recognition site on nicotinic receptors): blocked by the antibody to the galantamine recognition site on nicotinic receptors, FK-1
adverse effects at very high doses (mice; listed as n-butylcarbamate): wobbly and off-balance with rapid heart rate still present at 4 hours, but were recovered at 24 hours
adverse effects at very high doses (mice): affects cardiac and motor functions at very high doses
lethality (dose without lethality) (mice): > 100 mg/kg
increase of time remaining in the lighted compartment versus saline [2]: about 100 seconds
best dose for memory enhancement [2]: 0.5 mg/kg
stability in mouse plasma [10]: stable for greater than two hours
concentration at two hours compared with galantamine ([10]; two hours): slightly lower than those of galantamine

COc1ccc2c3c1O[C@H]1C[C@@H](O)C=C[C@@]31CCN(C)C2 [Galanthamine HBr, reference compound]
NADPH-dependent CLint (microsomal intrinsic clearance) ([6]; 5.0 μM, Mouse): 0.0 μl min^−1 mg−^1
NADPH-free CLint (microsomal intrinsic clearance) ([6]; 5.0 μM, Mouse): 0.0 μl min^−1 mg−^1
half-life at 5 μM [6, 11]: > 1 h
half-life at 5 μM [6, 12]: > 1 h
